The target of one experiment is CMG2 (Homo sapiens, UniProt P58335, C175A/R40C). In words: biochemical. The following applies: for koff: read-out: off-rate / koff (BLI). It counts as binding.
The target of a further experiment is TEM8 (Homo sapiens, UniProt Q9H6X2). It counts as binding. The settings on record: 250nM mCitrine-TEM8, 325nM PA-546; S16 313 nM to 40 μM.
Experiment [1] relates to EOMA cells. It counts as cell-based, murine. The following applies: n=3.
The next experiment deals with EA.hy926 cells. It counts as cell-based, human.
The subject of experiment [2] is EOMA cells. It counts as cell-based, murine.

This note sets out measurements from article doi:10.1101/705459v3 (bioRxiv, 2019).

“Also recorded” adds a separate entry of the source. Peptide text beside a SMILES is read from it.

Chain of CMG2 (P58335 40-217 R40C/C175A limits assumed): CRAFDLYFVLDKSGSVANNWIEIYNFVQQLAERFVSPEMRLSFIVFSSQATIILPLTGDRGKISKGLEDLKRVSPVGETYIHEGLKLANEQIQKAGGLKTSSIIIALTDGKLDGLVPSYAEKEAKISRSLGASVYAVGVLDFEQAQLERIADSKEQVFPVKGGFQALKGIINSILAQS
Chain of TEM8 (Q9H6X2 44-215 limits assumed): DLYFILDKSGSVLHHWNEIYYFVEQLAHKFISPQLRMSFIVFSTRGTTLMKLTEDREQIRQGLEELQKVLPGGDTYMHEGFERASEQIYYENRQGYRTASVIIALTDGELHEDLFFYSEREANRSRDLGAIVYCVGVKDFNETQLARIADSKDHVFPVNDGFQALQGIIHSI

Consider `CC[C@H](C)[C@H](NC(=O)[C@H](C)NC(=O)[C@@H](NC(=O)[C@H](C)NC(=O)[C@@H]1CCCN1)[C@@H](C)CC)C(=O)N[C@@H](C)C(=O)N[C@H](C(=O)N[C@@H](Cc1c[nH]cn1)C(=O)N[C@@H](CO)C(=O)N[C@@H](CCC(N)=O)C(=O)N[C@@H](CC(=O)O)C(=O)N[C@H](C(=O)N[C@@H](CO)C(=O)N[C@H](C(=O)N1CCC[C@H]1C(=O)O)[C@@H](C)CC)C(C)C)C(C)C` [Peptide S16] (H-PAIAIAVHSQDVSIP-OH; N-terminus and C-terminus assumed), for which the “S16 binding to CMG2 in EDTA (BLI)” value on CMG2 (10 mM EDTA instead of 2 mM CaCl2 and 1 mM MgCl2, 10 µM S16, n=3) is reported as “prevents S16 binding”. Moreover, on CMG2 (1:1 model), the “on-rate (BLI)” value was “≈ 2 × 10^2 M^−1s^−1”. The “binding on BLI of S16 prepared to encourage monomerization” value on CMG2 (S16 prepared in a fashion that encourages monomerization) is on record as “binding is not observed”. Further, the koff on CMG2 was about 0.0001 s⁻¹. Also, at CMG2 (sensors equilibrated with 500 nM PA, then 10 µM S16, n=3), the “S16 binding to CMG2 sensors treated with PA before S16 (BLI)” value was “reduced”. In addition, at TEM8, the “inhibition of TEM8-PA FRET” value is listed as “negligible; also recorded: unable to compete”. For the same compound, in the experiment with EOMA cells [1], the “reduction in wound closure” value was 60%. In addition, the “reduction of migration toward serum” value in the experiment with EA.hy926 cells was ~ 90%. Besides, in the experiment with EOMA cells [2], the “proliferation relative to untreated control” value is “no change in proliferation”.
With `CC[C@H](C)[C@H](NC(=O)[C@H](CO)NC(=O)[C@@H](N)C(C)C)C(=O)NCC(=O)N[C@@H](Cc1ccc(O)cc1)C(=O)N[C@@H](CC(C)C)C(=O)N[C@@H](CC(C)C)C(=O)N[C@H](C(=O)N[C@@H](CCCCN)C(=O)N[C@@H](Cc1c[nH]cn1)C(=O)N[C@@H](CO)C(=O)N[C@@H](CCC(N)=O)C(=O)N[C@H](C(=O)N[C@@H](CC(=O)O)C(=O)N[C@@H](CCC(N)=O)C(=O)O)[C@@H](C)O)C(C)C` [Peptide U12] (H-VSIGYLLVKHSQTDQ-OH; N-terminus and C-terminus assumed), the koff at CMG2 was 0.0125 ± 0.0002 s⁻¹. Besides, on CMG2 (representative fit), the “kon (BLI)” value turned out to be 150 ± 10 M/s.
Consider “SPIAVDVQSAPIHAI [scrambled S16, reference compound]”, for which the “binding of CMG2 (BLI), in words” value on CMG2 (concentrations up to 30 μM, 3 independent experiments, no binding model fits) is recorded as “minimal binding”. Moreover, in the experiment on EA.hy926 cells, the “directional migration versus vehicle” value is given as “no significant difference”.
